# According to ChEMBL document CHEMBL3217422, “Design of membrane targeting tobramycin-based cationic amphiphiles with reduced hemolytic activity” (Medchemcomm, 2013):
# Experiments:
# [1] = Induction of hemolysis in rat RBC assessed as hemoglobin release at 64 ug/ml after 1 hr by microplate reader analysis; assay type: cell-based, Erythrocyte; settings: red blood cells, read-out: Activity
# Staphylococcus aureus [2] = test: Antibacterial activity against Staphylococcus aureus ATCC 9144 assessed as growth inhibition after 24 hrs by double dilution method; assay type: functional; settings: ATCC 9144, 24 h
# Streptococcus mutans [3] = test: Antibacterial activity against Streptococcus mutans UA159 assessed as growth inhibition after 24 hrs by double dilution method; assay type: functional; settings: UA159, 24 h
# [4] = test system: Staphylococcus epidermidis; test: Antibacterial activity against Staphylococcus epidermidis ATCC 35984 assessed as growth inhibition after 24 hrs by double dilution method; assay type: functional; settings: ATCC 35984, 24 h
# Pseudomonas aeruginosa = test: Antibacterial activity against Pseudomonas aeruginosa ATCC 33347 assessed as growth inhibition after 24 hrs by double dilution method; assay type: functional; settings: ATCC 33347, 24 h
# Enterococcus = test: Antibacterial activity against vancomycin-resistant Enterococcus assessed as growth inhibition after 24 hrs by double dilution method; assay type: functional
# Shigella sonnei [5] = test: Antibacterial activity against O-antigen positive Shigella sonnei clinical isolate 6831 assessed as growth inhibition after 24 hrs by double dilution method; assay type: functional; settings: isolate 6831, 24 h
# [6] = Antibacterial activity against Streptococcus pyogenes serotype M12 strain MGAS9429 assessed as growth inhibition after 24 hrs by double dilution method; assay type: functional; settings: MGAS9429, 24 h
# [7] = test system: Staphylococcus epidermidis; test: Antibacterial activity against Staphylococcus epidermidis ATCC 12228 assessed as growth inhibition after 24 hrs by double dilution method; assay type: functional; settings: ATCC 12228, 24 h
# Staphylococcus aureus [8] = test: Antibacterial activity against Methicillin-resistant Staphylococcus aureus assessed as growth inhibition after 24 hrs by double dilution method; assay type: functional
# Enterococcus faecalis = test: Antibacterial activity against Enterococcus faecalis ATCC 29212 assessed as growth inhibition after 24 hrs by double dilution method; assay type: functional; settings: ATCC 29212, 24 h
# Shigella sonnei [9] = test: Antibacterial activity against O-antigen negative Shigella sonnei clinical isolate 6831 assessed as growth inhibition after 24 hrs by double dilution method; assay type: functional; settings: isolate 6831, 24 h
# [10] = test system: Streptococcus pyogenes serotype M12; test: Ratio of tobramycin MIC to compound MIC against Streptococcus pyogenes serotype M12 strain MGAS9429 after 24 hrs by double dilution method; assay type: functional
# [11] = Induction of hemolysis in rat RBC assessed as hemoglobin release at 32 ug/ml after 1 hr by microplate reader analysis; assay type: cell-based, Erythrocyte; settings: red blood cells, read-out: Activity
# Streptococcus mutans [12] = test: Antibacterial activity against Streptococcus mutans UA159 assessed as biofilm growth inhibition after 24 hrs by double dilution method; assay type: functional
# [13] = test system: Staphylococcus epidermidis; test: Antibacterial activity against Staphylococcus epidermidis ATCC 35984 assessed as biofilm growth inhibition after 24 hrs by double dilution method; assay type: functional
# [14] = Induction of hemolysis in rat RBC assessed as hemoglobin release at 128 ug/ml after 1 hr by microplate reader analysis; assay type: cell-based, Erythrocyte; settings: red blood cells, read-out: Activity
# [15] = Induction of hemolysis in rat RBC assessed as hemoglobin release at 32 to 128 ug/ml after 1 hr by microplate reader analysis; assay type: cell-based; settings: erythrocyte
SMILES,"hemolysis at 1 h, 64 ug/ml [1] [%]",MIC (Staphylococcus aureus [2]) [µg/mL],MIC (Streptococcus mutans [3]) [µg/mL],MIC [4] [µg/mL],MIC (Pseudomonas aeruginosa) [µg/mL],MIC (Enterococcus) [µg/mL],MIC (Shigella sonnei [5]) [µg/mL],MIC [6] [µg/mL],MIC [7] [µg/mL],MIC (Staphylococcus aureus [8]) [µg/mL],MIC (Enterococcus faecalis) [µg/mL],MIC (Shigella sonnei [9]) [µg/mL],Ratio [10],"hemolysis at 1 h, 32 ug/ml [11] [%]",MBIC (Streptococcus mutans [12]) [µg/mL],MBIC [13] [µg/mL],"hemolysis at 1 h, 128 ug/ml [14] [%]",Activity [15]
CCCCCCCCCCCCCCCCC(=O)NC[C@H]1O[C@H](O[C@@H]2[C@@H](O)[C@H](O[C@H]3O[C@H](CN)[C@@H](O)C[C@H]3N)[C@@H](N)C[C@H]2N)[C@H](O)[C@@H](N)[C@@H]1O,37.9,8,4,4,128,32,32,8,4,32,128,32,–,–,–,–,–,–
CCCCCCCCCCCCCCC(=O)NC[C@H]1O[C@H](O[C@@H]2[C@@H](O)[C@H](O[C@H]3O[C@H](CN)[C@@H](O)C[C@H]3N)[C@@H](N)C[C@H]2N)[C@H](O)[C@@H](N)[C@@H]1O,74.4,8,4,4,128,32,16,4,4,32,64,32,16,23,4,8,–,–
CCCCCCCCCCCCCCSC[C@H]1O[C@H](O[C@@H]2[C@@H](O)[C@H](O[C@H]3O[C@H](CN)[C@@H](O)C[C@H]3N)[C@@H](N)C[C@H]2N)[C@H](O)[C@@H](N)[C@@H]1O,74.4,8,2,4,128,16,16,2,4,32,64,32,16,23,4,8,–,–
CCCCCCCCCCCCc1cn(C[C@H]2O[C@H](O[C@@H]3[C@@H](O)[C@H](O[C@H]4O[C@H](CN)[C@@H](O)C[C@H]4N)[C@@H](N)C[C@H]3N)[C@H](O)[C@@H](N)[C@@H]2O)nn1,26.3,16,4,8,64,32,64,8,16,128,128,64,–,–,4,16,89.1,–
CCCCCCCCCCCCCCCCS(=O)(=O)C[C@H]1O[C@H](O[C@@H]2[C@@H](O)[C@H](O[C@H]3O[C@H](CN)[C@@H](O)C[C@H]3N)[C@@H](N)C[C@H]2N)[C@H](O)[C@@H](N)[C@@H]1O,37.9,8,8,16,> 128,32,32,8,16,32,64,128,–,–,–,–,–,–
NC[C@H]1O[C@H](O[C@H]2[C@H](O)[C@@H](O[C@H]3O[C@H](CO)[C@@H](O)[C@H](N)[C@H]3O)[C@H](N)C[C@@H]2N)[C@H](N)C[C@@H]1O [TOBRAMYCIN],–,16,128,128,> 128,> 128,16,64,< 1,> 128,> 128,32,–,–,64,128,–,–
CCCCCCCCCCCCCCCCc1cn(C[C@H]2O[C@H](O[C@@H]3[C@@H](O)[C@H](O[C@H]4O[C@H](CN)[C@@H](O)C[C@H]4N)[C@@H](N)C[C@H]3N)[C@H](O)[C@@H](N)[C@@H]2O)nn1,37.9,16,8,8,> 128,16,128,16,4,32,128,64,–,–,–,–,–,–
CCCCCCCCCCCCCCCCSC[C@H]1O[C@H](O[C@@H]2[C@@H](O)[C@H](O[C@H]3O[C@H](CN)[C@@H](O)C[C@H]3N)[C@@H](N)C[C@H]2N)[C@H](O)[C@@H](N)[C@@H]1O,37.9,16,4,8,> 128,64,32,4,4,64,128,64,–,–,–,–,–,–
CCCCCCCCCCCCC(=O)NC[C@H]1O[C@H](O[C@@H]2[C@@H](O)[C@H](O[C@H]3O[C@H](CN)[C@@H](O)C[C@H]3N)[C@@H](N)C[C@H]2N)[C@H](O)[C@@H](N)[C@@H]1O,0,16,4,8,32,64,128,16,8,128,128,128,–,–,8,8,10.2,–
CCCCCCCCCCCCS(=O)(=O)C[C@H]1O[C@H](O[C@@H]2[C@@H](O)[C@H](O[C@H]3O[C@H](CN)[C@@H](O)C[C@H]3N)[C@@H](N)C[C@H]2N)[C@H](O)[C@@H](N)[C@@H]1O,–,64,16,64,> 128,64,> 128,32,128,> 128,> 128,> 128,–,–,16,32,–,Toxic
CCCCCCCCCCCCCCS(=O)(=O)C[C@H]1O[C@H](O[C@@H]2[C@@H](O)[C@H](O[C@H]3O[C@H](CN)[C@@H](O)C[C@H]3N)[C@@H](N)C[C@H]2N)[C@H](O)[C@@H](N)[C@@H]1O,74.4,16,4,16,128,32,32,4,16,64,64,64,–,23,4,8,–,–
CCCCCCCCCCCCSC[C@H]1O[C@H](O[C@@H]2[C@@H](O)[C@H](O[C@H]3O[C@H](CN)[C@@H](O)C[C@H]3N)[C@@H](N)C[C@H]2N)[C@H](O)[C@@H](N)[C@@H]1O,–,16,8,8,128,64,32,8,8,64,128,64,–,–,4,16,71.6,–
CCCCCCCCCCCCCCc1cn(C[C@H]2O[C@H](O[C@@H]3[C@@H](O)[C@H](O[C@H]4O[C@H](CN)[C@@H](O)C[C@H]4N)[C@@H](N)C[C@H]3N)[C@H](O)[C@@H](N)[C@@H]2O)nn1,74.4,8,4,8,128,32,32,4,4,64,128,32,16,23,4,16,–,–
